System: rice (Diamant variety)
Experiment: Rice seed treatment with BHMPA salts: germinating power
Format: in vivo
Protocol: Experimental versions—soaking seeds in BHMPA solutions and solutions of BHMPA Ca, Mg, Na, Co, Mn, Cu, and Zn salts at 1·10^−6-1·10^−12% concentrations (doses). The studies were conducted in laboratory in Petri dishes; seed bed—two layers of filter paper. 50 seeds soaked in water (control) and in the solutions of the tested compounds (experimental) were placed into each dish. Wheat, corn, and rice seeds were exposed for one hour.
Seed germination energy and rate were calculated in percent as an arithmetic mean of the four experimental results (germination energy on the 4th day, wheat germination on the 8th day, rice and corn germination—on the 7th day). Germination was determined based on the germinating power indicators (length of the roots and sprouts and their wet and dry mass per 100 shoots).
The effect of pre-sowing seed treatment with the claimed BHMPA salts of biogenic metals was studied on winter wheat (Vershin variety), corn (Krasnodar 385 MV variety), and rice (Diamant variety).
The above data describe the seed viability only at the initial stage of germination, while the germination ability at the later stage of germination is defined by the initial germinating power. The method for the determination of the germinating power comprises measuring the height of the sprouts and primary roots, as well as the biomass and the dry mass thereof per 100 seedlings. [M. A. Kartuzova. Initial Germinating Power as Method of Biological Assessment of Seed Quality. Selection and Seed Farming, #2, 1953].

[1] = rice seed treatment, comparison with Melaphen (Table XXXIII), solution 1 · 10^−9%
[2] = rice seeds, solution concentration 1 · 10^−6%
[3] = rice seeds, solution concentration 1 · 10^−7%
[4] = rice seeds, solution concentration 1 · 10^−8%
[5] = rice seeds, solution concentration 1 · 10^−9%
[6] = rice seeds, solution concentration 1 · 10^−10%
[7] = rice seeds, solution concentration 1 · 10^−11%
[8] = rice seeds, solution concentration 1 · 10^−12%
[9] = rice, vs control, 1·10^−9% solution

O=P([O-])(CO)CO.O=P([O-])(CO)CO.[Ca+2] [Ca-salt, Calcium BHMPA Salt]
optimum concentration for treating rice seeds before sowing (rice): 1·10^−9% | Length, root [1]: 6.2 cm | Length, root, + % to control [1]: 29% | Length, sprout [1]: 3.5 cm | Length, sprout, + % to control [1]: 35% | Mass, dry, root [1]: 0.23 g/100 plantlings | Mass, dry, root, + % to control [1]: 9.5% | Mass, dry, sprout [1]: 0.27 g/100 plantlings | Mass, dry, sprout, + % to control [1]: 8% | Mass, wet, root [1]: 1.33 g/100 plantlings | Mass, wet, root, + % to control [1]: 36% | Mass, wet, sprout [1]: 2.24 g/100 plantlings | Mass, wet, sprout, + % to control [1]: 48% | Length, root [2]: 5.7 cm | Length, root, + % to control [2]: 10% | Length, sprout [2]: 2.8 cm | Length, sprout, + % to control [2]: 12% | Mass, dry, root [2]: 0.19 g/100 plantlings | Mass, dry, root, + % to control [2]: 12% | Mass, dry, sprout [2]: 0.23 g/100 plantlings | Mass, dry, sprout, + % to control [2]: 9.5% | Mass, wet, root [2]: 1.10 g/100 plantlings | Mass, wet, root, + % to control [2]: 14.5% | Mass, wet, sprout [2]: 1.92 g/100 plantlings | Mass, wet, sprout, + % to control [2]: 9% | Length, root [3]: 5.9 cm | Length, root, + % to control [3]: 13% | Length, sprout [3]: 3.0 cm | Length, sprout, + % to control [3]: 20% | Mass, dry, root [3]: 0.24 g/100 plantlings | Mass, dry, root, + % to control [3]: 41% | Mass, dry, sprout [3]: 0.26 g/100 plantlings | Mass, dry, sprout, + % to control [3]: 24% | Mass, wet, root [3]: 1.21 g/100 plantlings | Mass, wet, root, + % to control [3]: 26% | Mass, wet, sprout [3]: 2.16 g/100 plantlings | Mass, wet, sprout, + % to control [3]: 23% | Length, root [4]: 6.3 cm | Length, root, + % to control [4]: 21% | Length, sprout [4]: 3.1 cm | Length, sprout, + % to control [4]: 24% | Mass, dry, root [4]: 0.27 g/100 plantlings | Mass, dry, root, + % to control [4]: 59% | Mass, dry, sprout [4]: 0.28 g/100 plantlings | Mass, dry, sprout, + % to control [4]: 33% | Mass, wet, root [4]: 1.24 g/100 plantlings | Mass, wet, root, + % to control [4]: 29% | Mass, wet, sprout [4]: 2.25 g/100 plantlings | Mass, wet, sprout, + % to control [4]: 28% | Length, root [5]: 6.6 cm | Length, root, + % to control [5]: 27% | Length, sprout [5]: 3.2 cm | Length, sprout, + % to control [5]: 28% | Mass, dry, root [5]: 0.30 g/100 plantlings | Mass, dry, root, + % to control [5]: 76% | Mass, dry, sprout [5]: 0.32 g/100 plantlings | Mass, dry, sprout, + % to control [5]: 52% | Mass, wet, root [5]: 1.29 g/100 plantlings | Mass, wet, root, + % to control [5]: 34% | Mass, wet, sprout [5]: 2.36 g/100 plantlings | Mass, wet, sprout, + % to control [5]: 34% | Length, root [6]: 6.4 cm | Length, root, + % to control [6]: 23% | Length, sprout [6]: 3.0 cm | Length, sprout, + % to control [6]: 20% | Mass, dry, root [6]: 0.28 g/100 plantlings | Mass, dry, root, + % to control [6]: 65% | Mass, dry, sprout [6]: 0.29 g/100 plantlings | Mass, dry, sprout, + % to control [6]: 38% | Mass, wet, root [6]: 1.27 g/100 plantlings | Mass, wet, root, + % to control [6]: 32% | Mass, wet, sprout [6]: 2.28 g/100 plantlings | Mass, wet, sprout, + % to control [6]: 29.5% | Length, root [7]: 6.0 cm | Length, root, + % to control [7]: 15% | Length, sprout [7]: 2.9 cm | Length, sprout, + % to control [7]: 16% | Mass, dry, root [7]: 0.23 g/100 plantlings | Mass, dry, root, + % to control [7]: 35% | Mass, dry, sprout [7]: 0.27 g/100 plantlings | Mass, dry, sprout, + % to control [7]: 28.5% | Mass, wet, root [7]: 1.22 g/100 plantlings | Mass, wet, root, + % to control [7]: 27% | Mass, wet, sprout [7]: 1.98 g/100 plantlings | Mass, wet, sprout, + % to control [7]: 12.5% | Length, root [8]: 5.6 cm | Length, root, + % to control [8]: 8% | Length, sprout [8]: 2.7 cm | Length, sprout, + % to control [8]: 8% | Mass, dry, root [8]: 0.19 g/100 plantlings | Mass, dry, root, + % to control [8]: 12% | Mass, dry, sprout [8]: 0.26 g/100 plantlings | Mass, dry, sprout, + % to control [8]: 24% | Mass, wet, root [8]: 1.06 g/100 plantlings | Mass, wet, root, + % to control [8]: 10% | Mass, wet, sprout [8]: 1.88 g/100 plantlings | Mass, wet, sprout, + % to control [8]: 7% | dry mass of the roots increased by [9]: 76% | dry mass of the sprouts increased by [9]: 52% | length of the root increased by [9]: 27% | length of the sprout increased by [9]: 28% | wet mass of the roots increased by [9]: 34% | wet mass of the sprouts increased by [9]: 34%

From patent US10781224B2, “Bis(oxymethyl)phosphinic acid and biogenic metal salts thereof as regulators of plant growth and development” (priority 2016, dated 2020)
